# From publication PMC10781691, “Vertical pathway inhibition of receptor tyrosine kinases and BAD with synergistic efficacy in triple negative breast cancer” (NPJ Precision Oncology, 2024)
# Like-named read-outs stand apart in the source and are kept apart here.
# Experiments:
# Recombinant human BAD = target: T1, Recombinant human BAD (Homo sapiens, UniProt Q92934); experiment: SPR (BIAcore) with BAD immobilized on sensor chip; format: binding; conditions: analyte 1.25–160 μM
# T1 construct: purchased Novoprotein, Suzhou, China
# Experimental: To compare the binding affinity of NCK and NPB towards BAD, we performed surface plasmon resonance (SPR) measurement by immobilizing BAD protein on a sensor chip with NCK or NPB as analyte. Representative reference-subtracted overlaid sensorgrams and the kinetic parameters are specified in Fig. 2d and Supplementary Fig. 6A. […] Additionally, the pharmacological inhibition of BAD phosphorylation by NCK or NPB in TNBC cells was evaluated. […] Furthermore, the comparative potencies of NPB and NCK were evaluated in eight TNBC cell lines using total cell number assay in 2D culture and cell viability in 3D culture (Supplementary Fig. 6C, D).
# BT549 cells [1] = experiment: Total cell number assay, 2D culture; format: cell-based, human
# Experimental: (§1) Fold difference was calculated. Data represent means ± SD (n = 3).
# MDA-MB-231 cells [2] = experiment: Total cell number assay, 2D culture; format: cell-based, human
# Experimental: as §1
# MDA-MB-231 cells [3] = experiment: AlamarBlue cell viability, 3D Matrigel culture; format: cell-based, human
# BT549 cells [4] = experiment: AlamarBlue cell viability, 3D Matrigel culture; format: cell-based, human
# BT549 cells [5] = experiment: AlamarBlue assay IC50 (Supplementary Fig. 5A); format: cell-based; conditions: Homo sapiens, BT-549
# From the text: (§2) Ionization potential (I ) 7.21 eV
# (§3) Electron affinity (A) 4.79 eV
# (§4) Chemical potential (μ) 6.00 eV […]
# (§5) using AlamarBlue assay. Data represent means ± SD. (B) Cartoon representation of the compounds NPB (red) and NCK (black) (depicted in ball & stick model) docked to the BAD protein, occupying the same groove with the BAD Serine 99 residue (yellow) nearby. (C) 2D structure representation of compound NPB interacting with BAD protein residues. (D) Cartoon representation of docked compound and molecular electrostatic potential surfaces of NCK. The color code of the compound lies in the range of -0.121e0 to +0.121e0. Red and blue color in the MEP structure point to more electron rich and electron poor regions respectively. (E) The […]
# MDA-MB-231 cells [6] = experiment: AlamarBlue assay IC50 (Supplementary Fig. 5A); format: cell-based; conditions: Homo sapiens; MDA-MB-231, AlamarBlue assay
# From the text: as §2, §3, §4, §5
# [7] = test system: 4T1-luciferase homografts; experiment: Orthotopic syngeneic homograft, combination study; format: in vivo; conditions: BALB/c mice, day 16; NCK 20 mg/kg, OSI 50 mg/kg, CRI 50 mg/kg
# Experimental: In vivo bioluminescent imaging was performed to determine the incidence and metastatic burden of luciferase-labeled 4T1 cells. Mice were injected i.p. with 10 mg/ml of D-luciferin (Gold Biotechnology, MO, USA) and imaged using a PerkinElmer IVIS Spectrum system. PDX were generated as previously described by transplanting fresh fragments orthotopically into 8-week-old female nonobese diabetic (NOD)/severe combined immunodeficient (SCID) mice (Beijing Vital River Laboratory Animal Technology Co., Beijing, China) (P1, passage 1)[40]. The P1 xenografts were then fragmented, digested into single-cell suspension and implanted into mammary fat pad (100 μL PBS containing growth factor reduced 50% Matrigel) of NOD/SCID mice. Once orthotopic xenografts reached an approximate size of 100 mm^3, the mice were randomly divided into three groups (n = 8) for single drug studies and six groups (n = 6) for combination studies and Kaplan-Meier (KM) analyses. […] Animal body weight and xenograft size were measured daily using an electronic balance and a digital caliper, respectively. Xenograft volume (mm^3) was calculated by using the formula: 0.52 × length × [width]^2. Complete response (CR) was achieved if the average xenograft volume for the treatment group was unable to be determined for two or more consecutive measurements. Partial response (PR) was achieved if the average xenograft volume reduced to <50 mm^3 for two or more consecutive measurements. After 3-week drug treatment, all mice were sacrificed by CO2 inhalation. Tumor and vital organs were weighed and isolated for further analysis. IHC analysis of xenograft histology sections and quantitative polymerase chain reaction (qPCR) were performed as previously described. […]
# model was measured every day and calculated by using the formula: 0.52 × length × [width]2.
# The animal weight of each treatment group is indicated. […]
# treatment group after sacrifice on the 15th day of treatment. (C) Bioluminescence of homografts from mice orthotopically implanted with 4T1-luciferase cells. (D) Resected homografts from each treatment group.
# (F) Histological analyses and IRS scoring of pBAD at Ser99, BAD, MKI67, and TUNEL staining in homografts. Scale bar, 20 µm. […]
# kidney weights (%, organ body index) and colon length of BALB/c mice administrated with […]
# represent means ± SD ( n=6).*P < 0.05, **P < 0.01, and ***P < 0.001.
# TNBC cell lines = experiment: 2D total cell number and 3D viability in eight TNBC cell lines; format: cell-based, human
# MDA-MB-231 cells [8] = test system: MDA-MB-231 cells
# MDA-MB-231 cells [9] = experiment: CASPASE 3/7 DEVD assay; conditions: MDA-MB-231, 5 μM NCK
# BT549 cells [10] = experiment: Annexin V-PI apoptosis flow cytometry; conditions: BT549, 5 μM
# From the text: Representative flow cytometry plots of Annexin-V and propidium iodide (PI) stained apoptotic
# or NPB using flow cytometry analysis. Annexin V-FITC staining is indicated on the x axis, and PI staining is indicated on the y axis. The lower left quadrants represent live cells, the lower right quadrants represent early apoptotic cells, the upper left quadrants represent necrotic cells, and the upper right quadrants display late apoptotic cells. Acquisition of Annexin V and PI data are presented as a percentage (%) in each quadrant. Early apoptotic cells are referred to as Annexin- V positive and late apoptotic cells are referred to as Annexin-V and PI double positive.
# MDA-MB-231 cells [11] = experiment: Cambridge cancer compound library screen in combination with NCK; format: cell-based, human; conditions: compound at IC25 with NCK 0.1, 1, 10 μM, 72 h, AlamarBlue
# Experimental: Cancer compound library screening was performed using IC25 values of anti-cancer compounds (predicted with Genomics of Drug Sensitivity in Cancer (https://www.cancerrxgene.org/) and NCK at 3-point dilutions (0.1, 1, 10 μM) in medium containing 2% FBS to identify potential synergistic combinations. In detail, MDA-MB-231 cells (5 ×10^3) were seeded in 96-well plates in 80 μl of culture medium (2% FBS) and allowed to settle overnight. 24-hour post-seeding, 10 μl of compounds dissolved in culture medium were prepared and added to the plates to reach a final concentration of IC25 of the respective compound. 10 μl of NCK was also added into cell plates to yield a final concentration of 0.1, 1 or 10 μM. After 72-hours of treatment, cell viability was determined with AlamarBlue reagent and fluorescence was measured using a Tecan microplate reader, as previously described[29].
# VEGFR2 = conditions: read-out: potency on VEGFR2; cited from earlier work
# c-Kit = conditions: read-out: potency on Kit; cited from earlier work
# Flt1 = test system: Flt1; design: method as in SelleckChem; conditions: ref SelleckChem; cited from earlier work
# [12] = Phase I, cited from earlier work
# [13] = Balb/c-nude mice, day 22, NCK 20 mg/kg, OSI 50 mg/kg, CRI 50 mg/kg
# T1 sequence (Q92934 whole entry): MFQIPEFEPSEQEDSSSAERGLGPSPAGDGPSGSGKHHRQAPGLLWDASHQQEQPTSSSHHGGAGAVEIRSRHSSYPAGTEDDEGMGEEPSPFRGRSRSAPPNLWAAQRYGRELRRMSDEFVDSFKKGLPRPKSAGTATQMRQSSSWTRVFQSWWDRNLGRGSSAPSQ
smiles,measurement,setting,value
"Oc1ccccc1C(c1cccnc1)N1CCN(c2cccc(Cl)c2Cl)CC1 (stereo not shown) [NCK, 2-((4-(2,3-dichlorophenyl)piperazin-1-yl)(pyridin-3-yl)methyl) phenol]",Kd,Recombinant human BAD; read-out: Affinity (KD),48.1 nM
same,kon,Recombinant human BAD; read-out: Association (Ka),111000 M⁻¹ s⁻¹
same,fold IC50 difference NCK vs NPB,"BT549 cells [1]; BT549, 2D",~ 2 fold
same,IC50,"BT549 cells [1]; Homo sapiens, BT-549, BT549, 2% FBS",1700 nM
same,IC50,"MDA-MB-231 cells [2]; Homo sapiens, MDA-MB-231, 2% FBS",1010 nM
same,fold IC50 difference NCK vs NPB,"MDA-MB-231 cells [2]; MDA-MB-231, 2D",~ 3 fold
same,IC50,"MDA-MB-231 cells [3]; Homo sapiens, MDA-MB-231, 3D Matrigel, AlamarBlue",239 nM
same,growth in 3D Matrigel,"MDA-MB-231 cells [3]; MDA-MB-231, 5 μM each",reduced cell growth in 3D Matrigel
same,fold IC50 difference NCK vs NPB,"MDA-MB-231 cells [3]; MDA-MB-231, 3D Matrigel",~ 6 fold
same,growth in 3D Matrigel,"BT549 cells [4]; BT549, 5 μM each",reduced cell growth in 3D Matrigel
same,fold IC50 difference NCK vs NPB,"BT549 cells [4]; BT549, 3D Matrigel",~ 8 fold
same,IC50,"BT549 cells [4]; Homo sapiens, BT-549, BT549, 3D Matrigel, AlamarBlue",309 nM
same,IC50,BT549 cells [5],12100 ± 1360 nM
same,IC50,MDA-MB-231 cells [6],4940 ± 2800 nM
same,Colon Length,[7],9.02±1.54 cm
same,Relative Heart Weight,[7],0.61±0.11%
same,Relative Kidney Weight,[7],1.40±0.16%
same,Relative Liver Weight,[7],4.98±0.21%
same,Relative Lung Weight,[7],0.87±0.11%
same,Relative Spleen Weight,[7],2.24±0.40%
same,potency vs NPB in reducing 2D and 3D cell viability,TNBC cell lines,more potent than NPB
same,Relative Heart Weight,MDA-MB-231 cells [8]; [13],0.66±0.08%
same,Relative Kidney Weight,MDA-MB-231 cells [8]; [13],1.72±0.18%
same,Relative Liver Weight,MDA-MB-231 cells [8]; [13],6.57±0.93%
same,Relative Lung Weight,MDA-MB-231 cells [8]; [13],0.82±0.05%
same,Relative Spleen Weight,MDA-MB-231 cells [8]; [13],0.75±0.13%
same,micro-metastatic nodules in lung (H&E) vs vehicle,MDA-MB-231 cells [8]; MDA-MB-231 metastasis model,significantly reduced lung colonization
same,Relative Lung Weight,"MDA-MB-231 cells [8]; MDA-MB-231 metastasis model, vehicle 0.19 ± 0.02 g",0.17 ± 0.01 g
same,CASPASE 3/7 activity vs vehicle,MDA-MB-231 cells [9],increased CASPASE 3/7 activity
same,induction of apoptosis (early and late),BT549 cells [10],more potent effect than NPB in inducing apoptosis
O=C(Nc1ccc(OC(F)(F)F)cc1)c1sccc1NCc1ccnc2ccccc12 [OSI-930],Colon Length,[7],9.33±1.26 cm
same,Relative Kidney Weight,[7],1.34±0.02%
same,"synergy with NCK in compound library screen (CI, Bliss independence)",MDA-MB-231 cells [11],low CI (high synergy)
same,micro-metastatic nodules in lung (H&E) vs vehicle,MDA-MB-231 cells [8]; MDA-MB-231 metastasis model,significantly reduced lung colonization
same,IC50,VEGFR2,9 nM
same,IC50,c-Kit,80 nM
same,IC50,Flt1,8 nM
same,"MTD, BID",[12]; ref NCT00513851,500 mg
same,"MTD, QD",[12]; ref NCT00513851,1600 mg
same,MTD of OSI-930 BID with 150 mg erlotinib QD,[12]; ref NCT00603356,200 mg
